These results are taken from patent publication US7619086B2 (Merck & Co., Inc., priority 2004, dated 2009).

Some results are limits rather than exact numbers.

One test relates to HIV. Briefly: Assay for inhibition of HIV replication (acute HIV infection of T-lymphoid cells). Format: cell-based. Conditions: Human immunodeficiency virus 1. As to the method:
Assays for the inhibition of acute HIV infection of T-lymphoid cells were conducted in accordance with Vacca, J. P. et al., Proc. Natl. Acad. Sci. USA 1994, 91: 4096.

The target of test [1] is T1, HIV integrase (recombinant integrase) (Human immunodeficiency virus type 1 group M subtype B, UniProt P04585).
T1 construct: Assays for the strand transfer activity of integrase were conducted in accordance with WO 02/30930 for recombinant integrase
Nature of the test: HIV integrase assay: strand transfer catalyzed by recombinant integrase. Format: biochemical. Conditions: per WO 02/30930, read-out: IC50, inhibition of strand transfer activity of integrase. How it is done: Assays for the strand transfer activity of integrase were conducted in accordance with WO 02/30930 for recombinant integrase.
Further description on conducting the assay using preassembled complexes is found in Wolfe, A. L. et al., J. Virol. 1996, 70: 1424-1432, Hazuda et al., J. Virol. 1997, 71: 7005-7011; Hazuda et al., Drug Design and Discovery 1997, 15: 17-24; and Hazuda et al., Science 2000, 287: 646-650.

A word on the IC95: it is the concentration at which the effect reaches the 95% level. A low value points to an effect from little substance. Broadly, the IC50 is the midpoint of a concentration-inhibition curve. As to `CC[C@@H]1[C@@H]2CCN(Cc3ccc(F)cc3)C(=O)C2=C(O)C(=O)N1C` (relative stereo) [Example 6, (Cis-4a,5)-5-Ethyl-2-(4-fluorobenzyl)-8-hydroxy-6-methyl-2,3,4,4a,5,6-hexahydro-2,6-naphthyridine-1,7-dione], the IC95 in the test on HIV is at most 10 µM. Also, the IC50 in test [1] is at most 1 µM.
The matching figures for `CN(C)C(=O)C1C2CCN(Cc3ccc(F)cc3)C(=O)C2=C(O)C(=O)N1C` (stereo not drawn) [Example 9, 5-(Dimethylaminocarbonyl)-2-(4-fluorobenzyl)-8-hydroxy-6-methyl-2,3,4,4a,5,6-hexahydro-2,6-naphthyridine-1,7-dione]: at most 10 µM and at most 1 µM.
Consider `CN1C(=O)C(O)=C2C(=O)N(Cc3ccc(F)cc3)CCC2C1C(=O)OC(C)(C)C` (single isomer, unassigned) [Example 4, 5-(tert-Butyloxycarbonyl)-2-(4-fluorobenzyl)-8-hydroxy-6-methyl-2,3,4,4a,5,6-hexahydro-2,6-naphthyridine-1,7-dione], for which, in the test with HIV, the IC95 was at most 10 µM. In test [1], the IC50 was at most 1 µM.
The matching figures for `CCC1NC(=O)C(O)=C2C(=O)N(Cc3ccc(F)cc3)CCC21` (stereo not drawn) [Example 5]: at most 10 µM and at most 1 µM.
The matching figures for `CN1CC2(c3ccccc3)CCN(Cc3ccc(F)cc3)C(=O)C2=C(O)C1=O` (stereo not drawn) [Example 3, 2-(4-Fluorobenzyl)-8-hydroxy-6-methyl-4-a-phenyl-2,3,4,4a,5,6-hexahydro-2,6-naphthyridine-1,7-dione]: at most 10 µM and at most 1 µM.
The corresponding values for `CN1C(=O)C(O)=C2C(=O)N(Cc3ccc(F)cc3)CCC2C1C(=O)NCc1ccccn1` (stereo not drawn) [Example 16] are at most 10 µM and at most 1 µM.
Take `CC[C@@H]1[C@H]2CCN(Cc3ccc(F)cc3)C(=O)C2=C(O)C(=O)N1C` (relative stereo) [Example 7, (Trans-4a,5)-5-Ethyl-2-(4-fluorobenzyl)-8-hydroxy-6-methyl-2,3,4,4a,5,6-hexahydro-2,6-naphthyridine-1,7-dione]: the IC95 in the test with HIV is at most 10 µM. The IC50 in test [1] was at most 1 µM.
The corresponding values for `CN1C(=O)C(O)=C2C(=O)N(Cc3ccc(F)c(F)c3)CCC2C1(C)C` (stereo not drawn) [Example 12] are at most 10 µM and at most 1 µM.
The matching figures for `CN1C(=O)C(O)=C2C(=O)N(Cc3ccc(F)cc3)CCC2C1(C)C` (stereo not drawn) [Example 2, 2-(4-Fluorobenzyl)-8-hydroxy-5,5,6-trimethyl-2,3,4,4a,5,6-hexahydro-2,6-naphthyridine-1,7-dione]: at most 10 µM and at most 1 µM.
The corresponding values for `CN1C(=O)C(O)=C2C(=O)N(Cc3ccc(F)c(Cl)c3)CCC2C1(C)C` (stereo not drawn) [Example 10] are at most 10 µM and at most 1 µM.
For `CN1C(=O)C(O)=C2C(=O)N(Cc3ccc(F)cc3)CCC2C1c1ncccn1` (single isomer, unassigned) [first eluting enantiomer of Example 17, 5-(Pyrimidin-2-yl)-2-(4-fluorobenzyl)-8-hydroxy-6-methyl-2,3,4,4a,5,6-hexahydro-2,6-naphthyridine-1,7-dione], the IC95 in the test on HIV is at most 10 µM. The IC50 in test [1] was at most 1 µM.
The matching figures for `CC(C)CNC(=O)C1C2CCN(Cc3ccc(F)cc3)C(=O)C2=C(O)C(=O)N1C` (stereo not drawn) [Example 14]: at most 10 µM and at most 1 µM.
The matching figures for `O=C1C2=C(O)C(=O)N(C3CC3)CC2CCN1Cc1ccc(F)c(Cl)c1` (racemic) [Example 18, 2-(3-Chloro-4-fluorobenzyl)-8-hydroxy-6-cyclopropyl-2,3,4,4a,5,6-hexahydro-2,6-naphthyridine-1,7-dione]: at most 10 µM and at most 1 µM.
The corresponding values for `CN1CC2CCN(Cc3ccc(F)cc3)C(=O)C2=C(O)C1=O` (stereo not drawn) [Example 1, 2-(4-Fluorobenzyl)-8-hydroxy-6-methyl-2,3,4,4a,5,6-hexahydro-2,6-naphthyridine-1,7-dione] are at most 10 µM and at most 1 µM.
In turn, `CN1C(=O)C(O)=C2C(=O)N(Cc3ccc(F)cc3)CCC2C1C(=O)NC(C)(C)C` (stereo not drawn) [Example 15] displayed an IC95 with HIV of at most 10 µM. Also, the IC50 in test [1] is at most 1 µM.
For `CC1(C)C2CCN(Cc3ccc(F)cc3)C(=O)C2=C(O)C(=O)N1CC1CC1` (stereo not drawn) [Example 8, 6-(Cyclopropylmethyl)-2-(4-fluorobenzyl)-8-hydroxy-5,5-dimethyl-2,3,4,4a,5,6-hexahydro-2,6-naphthyridine-1,7-dione], the IC95 in the test on HIV was at most 10 µM. The IC50 in test [1] was at most 1 µM.
The matching figures for `CN1C(=O)C(O)=C2C(=O)N(Cc3ccc(F)cc3)CCC2C12CCCC2` (stereo not drawn) [Example 11]: at most 10 µM and at most 1 µM.
The matching figures for `CN1C(=O)C(O)=C2C(=O)N(Cc3ccc(F)cc3)CCC2C12CCC2` (stereo not drawn) [Example 13]: at most 10 µM and at most 1 µM.
